Measurements as given in publication PMC9558053, “Development of a novel high-throughput screen for the identification of new inhibitors of protein S-acylation” (The Journal of Biological Chemistry, 2022).

Target: T1, human zDHHC7 (Homo sapiens, UniProt Q9NXF8)
T1 construct: expressed in transfected cells; host or cells: HEK293T
T1 sequence (Q9NXF8 1-308): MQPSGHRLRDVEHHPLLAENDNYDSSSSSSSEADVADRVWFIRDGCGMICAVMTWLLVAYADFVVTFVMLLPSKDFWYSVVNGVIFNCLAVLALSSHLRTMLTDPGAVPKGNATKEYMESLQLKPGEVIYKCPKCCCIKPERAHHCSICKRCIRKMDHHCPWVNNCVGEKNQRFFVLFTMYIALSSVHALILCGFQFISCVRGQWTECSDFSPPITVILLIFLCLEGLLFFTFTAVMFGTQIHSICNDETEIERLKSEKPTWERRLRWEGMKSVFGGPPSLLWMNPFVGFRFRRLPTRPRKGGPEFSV
Assay: PSD95-mCHERRY S-acylation in HEK293T cells co-expressing zDHHC7
Format: cell-based
Details: 25 μM
Description: PSD95 (postsynaptic density protein 95) is a major S-acylated protein that has a critical role in the maturation of excitatory neurons and in synaptic plasticity ([46], [47]). PSD95 can be S-acylated by zDHHC2, zDHHC3, zDHHC7, and zDHHC15 ([6]). […] We therefore tested the effects of TTZ-1 and TTZ-2 on the S-acylation of PSD95 mediated by zDHHC2, zDHHC3, zDHHC7, and zDHHC15. […] In contrast, zDHHC3 and zDHHC7 activities toward PSD95 were unaffected by TTZ-1 and TTZ-2, mirroring the data obtained with GFP-SNAP25 as a substrate.
Figure 9 Activity of TTZ-1 and TTZ-2 against PSD95 S-acylation mediated by human zDHHC2, zDHHC3, zDHHC7, and zDHHC15 expressed in mammalian cells. HEK293T cells were transfected with a plasmid encoding PSD95-mCHERRY together with either a control plasmid pEF-BOS-HA (pEF) or a plasmid encoding either HA-tagged human zDHHC2 (zD2), zDHHC3 (zD3), zDHHC7 (zD7), or zDHHC15 (zD15) for 24 h. Cells were then preincubated for 4 h with TTZ-1 or TTZ-2 (25 μM final) or DMSO control before metabolic labeling with 100 μM C16:0-azide for 4 h. Cells were lysed, and proteins having incorporated C16:0-azide were labeled by click chemistry with an alkyne-IR800 dye. […] The data were quantified, and the graphs below each set of membranes show mean ± SEM of normalized S-acylation of PSD95-mCHERRY (click signal/RFP signal). […]

Structure (SMILES)	PSD95-mCHERRY S-acylation by zDHHC7
O=C(Nc1cccc2c1OC(c1nnn[nH]1)CN2)c1ccc(OCCCCc2ccccc2)cc1 (centres unmarked) [TTZ-2, N-(2-(1H-Tetrazol-5-yl)-3,4-dihydro-2H-benzo[b][1,4]oxazin-8-yl)-4-(4-phenylbutoxy)benzamide]	unaffected
CCCCCCCOc1ccc(C(=O)Nc2cccc3c2OC(c2nnn[nH]2)CN3)cc1 (centres unmarked) [TTZ-1, N-(2-(1H-Tetrazol-5-yl)-3,4-dihydro-2H-benzo[b][1,4]oxazin-8-yl)-4-(heptyloxy)benzamide]	unaffected
